Data published in publication PMC5412686 (Biopharmaceutics & Drug Disposition, 2017).
≈ marks a conversion by molar mass, not a printed value. Where two headings read alike, the source gives them in different places.

Experiments:
[1] = Rats, blood/plasma ratio; ref Supplemental Table S1; cited from earlier work
[2] = ref Supplemental Table S1, cited from earlier work; for HBD: number of hydrogen bond donors; for log D: octanol/water at pH 7.4; for PSA: polar surface area
[3] = Intrinsic metabolic clearance determined in human liver microsomes; format: in vitro ADME; conditions: pH 7.4
[4] = no medium marked (buffer pH 7.4); ref Supplemental Table S1; cited from earlier work
[5] = Humans, cited from earlier work; for Urinary excretion (f e): excreted unchanged in urine, ref Supplemental Table S1; for CL: i.v.; for CL / F / Vss: ref Supplemental Table S2; for F: oral bioavailability
[6] = cited from earlier work
[7] = Humans, blood/plasma ratio; ref Supplemental Table S1; cited from earlier work
[8] = Rats, fraction unbound; ref Supplemental Table S1; cited from earlier work
[9] = Rat i.v. and oral pharmacokinetics from literature; format: in vivo, rats; conditions: liver blood flow 80 ml/min/kg
[10] = human, Caco-2, pH 7.4, with cyclosporine A 10 μM
Caco‐2 cells (TC7 clone) = conditions: Equation 11 from measured P‐Caco2
[11] = Solubility in fasted state simulated intestinal fluid; format: physicochemical; conditions: FaSSIF, 37 °C, pH 6.5, fassif, thermodynamic from solid
[12] = Humans, fraction unbound in plasma; ref Supplemental Table S1; cited from earlier work
[13] = Rats, i.v., ref Supplemental Table S2

Compound | R b [1] | HBD [2] | log D [2] | PSA [2] | microsomal CLint at 1 μM [3] | Solubility (Biorelevant media or Buffer, pH 7.4) [4] | Urinary excretion (f e) [5] | CL [5] | F [5] | Vss [5] | F ([6]; rat, in vivo, po) | R b [7] | f up [8] | CL [6, 13] | Papp at 2 h, 1 μM [10] | Calculated P eff from P‐Caco2 (Caco‐2 cells (TC7 clone)) | further results
Cc1ncc2n1-c1ccc(Cl)cc1C(c1ccccc1F)=NC2 [Midazolam] | 0.81 | 0 | 1.53 | 20.1 | 392 µL/min/mg | 0.024 mg/ml | < 1 % of dose | 19.38 L/h | 0.7 | 0.74 L/kg | 0.25 | 0.75 |  |  |  |  | Base pKa [2]: 5.6; CL ([6]; rat, in vivo, iv): 2.76 L/h/kg
CCOC(=O)c1ncn2c1CN(C)C(=O)c1cc(F)ccc1-2 [Flumazenil] |  | 0 | 0.87 | 57.0 | 39 µL/min/mg | 0.13 mg/ml | 0.5 % of dose | 72.06 L/h |  | 0.97 L/kg | 0.28 | 1 | 0.14 | 8.82 L/h/kg |  |  | Rat blood clearance compared with liver blood flow [9]: exceeding maximum liver blood flow value
C=CCc1ccccc1OCC(O)CNC(C)C (stereo not shown) [Alprenolol] | 1.71 | 2 | 1.34 | 46.2 | 128 µL/min/mg | 0.55 mg/ml | 0.5 % of dose | 65.90 L/h | 0.06 | 2.99 L/kg | 0.04 | 0.76 |  | 4.74 L/h/kg | 315 nm/s | 3.9 10^−4 cm/s | 
COc1ccc2[nH]c([S+]([O-])Cc3ncc(C)c(OC)c3C)nc2c1 (stereo not shown) [Omeprazole] | 0.66 | 1 | 2.23 | 71.0 | < 10 µL/min/mg | 0.035 mg/ml | 0 % of dose | 39.48 L/h | 0.32 |  | 0.09 | 0.59 |  | 2.35 L/h/kg |  |  | 
COC(=O)C1=C(C)NC(C)=C(C(=O)OCCN(C)Cc2ccccc2)C1c1cccc([N+](=O)[O-])c1 (stereo not shown) [Nicardipine] |  | 1 |  | 114.0 |  |  |  |  |  |  | 0.22 |  | 0.01 |  |  |  | Base pKa [2]: 7.3; solubility at 24 h [11]: 0.227 mg/mL (≈ 473 µM)
CCOC(=O)C1=C(C)NC(C)=C(C(=O)OC)C1c1cccc(Cl)c1Cl (stereo not shown) [Felodipine] | 0.68 | 1 | 4.76 | 68.7 |  |  | < 1 % of dose |  | 0.25 |  | 0.1 | 0.7 | 0.001 |  |  |  | Acid pKa [2]: 5.1; solubility at 24 h [11]: 0.04 mg/mL (≈ 104 µM)
Cc1ccc(-c2nc3ccc(C)cn3c2CC(=O)N(C)C)cc1 [Zolpidem] | 0.86 | 0 |  | 30.0 | < 10 µL/min/mg | 23 mg/ml | < 1 % of dose | 18.85 L/h | 0.78 | 0.68 L/kg | 0.27 | 0.66 |  | 0.9 L/h/kg |  |  | Acid pKa [2]: 6.3
CCN(CC)CC(=O)Nc1c(C)cccc1C [Lidocaine] | 1.27 |  |  |  |  |  |  |  |  |  |  | 0.87 |  |  |  |  | 
Cc1ccc(O)c([C@H](CCN(C(C)C)C(C)C)c2ccccc2)c1 [Tolterodine] |  | 1 | 2.38 | 24.1 | 115 µL/min/mg | 12 mg/ml |  | 27.72 L/h | 0.72 | 1.4 L/kg | 0.02 |  |  | 10 L/h/kg | 262 nm/s | 3.6 10^−4 cm/s | Rat blood clearance compared with liver blood flow [9]: exceeding maximum liver blood flow value
CC(C)(C)NC(=O)[C@@H]1C[C@@H]2CCCC[C@@H]2CN1C[C@@H](O)[C@H](Cc1ccccc1)NC(=O)[C@H](CC(N)=O)NC(=O)c1ccc2ccccc2n1 [Saquinavir] |  | 5 | 5.05 | 178.8 |  | 2.22 mg/ml |  |  |  |  | 0.07 |  | 0.05 |  | 50 nm/s | 1.6 10^−4 cm/s | Base pKa [2]: 7.7; f up [12]: 0.03; CL ([6]; rat, in vivo, iv): 5.31 L/h/kg
CCOC(=O)C1=C(C)NC(C)=C(C(=O)OC)C1c1cccc([N+](=O)[O-])c1 (stereo not shown) [Nitrendipine] | 1.46 | 1 | 3.81 | 112.9 |  |  | < 1 % of dose | 78.89 L/h | 0.39 | 5.39 L/kg | 0.12 | 1.46 |  | 0.99 L/h/kg |  |  | solubility at 24 h [11]: 0.008 mg/mL (≈ 22.2 µM)
C=CC[C@@H]1/C=C(\C)C[C@H](C)C[C@H](OC)[C@H]2O[C@@](O)(C(=O)C(=O)N3CCCC[C@H]3C(=O)O[C@H](/C(C)=C/[C@@H]3CC[C@@H](O)[C@H](OC)C3)[C@H](C)[C@@H](O)CC1=O)[C@H](C)C[C@@H]2OC [Tacrolimus] | 1.4 | 3 | 3.96 | 185.9 |  | 0.008 mg/ml | < 1 % of dose | 78.75 L/h | 0.21 | 1.74 L/kg | 0.11 | 35 |  | 0.99 L/h/kg |  |  | Base pKa [2]: 9.3
O=c1[nH]c2ccccc2n1CCCN1CCC(n2c(=O)[nH]c3cc(Cl)ccc32)CC1 [Domperidone] |  | 2 | 3.33 | 66.8 | 166 µL/min/mg |  | < 1 % of dose | 42.06 L/h |  |  |  |  |  | 2.35 L/h/kg | 386 nm/s | 4.3 10^−4 cm/s | solubility at 24 h [11]: 0.135 mg/mL (≈ 317 µM)
Cc1nnc2n1-c1ccc(Cl)cc1C(c1ccccc1)=NC2 [Alprazolam] | 0.81 | 0 |  | 33.3 | < 10 µL/min/mg | 40 mg/ml | 20 % of dose | 3.11 L/h | 0.96 |  |  | 0.78 | 0.35 | 7.98 L/h/kg | 386 nm/s | 4.3 10^−4 cm/s | Rat blood clearance compared with liver blood flow [9]: exceeding maximum liver blood flow value; F ([6]; Rats, oral bioavailability, ref Supplemental Table S2): 0.28
